Data published in patent US20250114367A1, “METHOD OF TREATING HAIR LOSS DISORDERS” (Sun Pharmaceutical Industries, Inc., priority 2023, published 2025).

Tested on: adult subjects with moderate to severe AA
Experiment: Phase III trial: Clinical Global Impression of Improvement (CGI-I)
Type: in vivo, human
Conditions: non-missing data
Description: The CGI-I was assessed by the investigator. Compared to the subject's alopecia areata prior to treatment at baseline, the subject's current state of alopecia areata was assessed according to the investigator's perceived change. The investigator selected 1 of 7 numeric choices representing “Very Much Worse” to “Very Much Improved.” To reduce variability, 1 rater was to perform the CGI-I assessment for the subject for the duration of the study.
A Phase III trial was conducted to assess the efficacy and safety of CTP-543 in adult subjects with moderate to severe AA. Approximately 440 adult male and female subjects 18 to 65 years of age, inclusive, with moderate to severe AA participated in the study. Subjects with definitive diagnosis of AA, and at least 50% hair loss, as defined by a SALT score ≥50, who met all of the inclusion criteria and none of the exclusion criteria participated in the study.
The Screening Period lasted up to 28 days prior to initiation of study drug. […] Randomization was stratified by scalp hair loss into 1 of the following 2 categories: 1) partial scalp hair loss (SALT ≥50 and <95), 2) complete or near complete scalp hair loss (SALT ≥95).
Additional secondary efficacy endpoints included the following: • Relative change in SALT scores from baseline at Weeks 4, 8, 12, 16, 20, and 24. • Percentage of responders (defined as “much improved” or “very much improved”) using the Clinical Global Impression of Improvement (CGI-I) at Weeks 12, 16, 20, and 24. • Percentage of responders (defined as “much improved” or “very much improved”) using the Patient Global Impression of Improvement (PGI-I) at Weeks 12, 16, 20, and 24. • Change from baseline in the Clinical Global Impression of Severity (CGI-S) at Weeks 12, 16, 20, and 24. • Change from baseline in the Patient Global Impression of Severity (PGI-S) at Weeks 12, 16, 20, and 24. • Change from baseline on the Brigham Eyebrow Tool for Alopecia (BETA) score at Weeks 12 and 24. • Change from baseline on the Brigham Eyelash Tool for Alopecia (BELA) score at Weeks 12 and 24. • Percentage of subjects achieving at least a 75% relative reduction in SALT score from baseline at Weeks 12 and 24. • Percentage of subjects achieving at least a 90% relative reduction in SALT score from baseline at Weeks 12 and 24. • Percentage of responders (defined as “satisfied” or “very satisfied”) on the SPRO scale at Weeks 12, 16, and 20. • Change from baseline in the SPRO scale at Weeks 12, 16, 20, and 24. • Percentage of subjects achieving a ≥2-point change from baseline in the SPRO scale at Weeks 12, 16, 20, and 24. • Change from baseline on the individual items of the Hair Quality Patient Reported Outcome (QPRO) scale at Weeks 12, 16, 20, and 24. • Change from baseline in the depression scale of the Hospital Anxiety and Depression Scale (HADS) at Week 24. • Change from baseline in the anxiety scale of the HADS at Week 24. • Percentage of subjects achieving an absolute SALT score of ≤20 at Week 4. • Percentage of subjects achieving an absolute SALT score of ≤10 at Week 24
Subjects with responses of “very much improved” or “much improved” were considered CGI-I responders. […] Detailed data are described below. At each visit, the percentage of CGI-I responders (non-missing data) was as follows: […]

Structure (SMILES): [2H]C1([2H])C([C@@H](CC#N)n2cc(-c3ncnc4[nH]ccc34)cn2)C([2H])([2H])C([2H])([2H])C1([2H])[2H] [CTP-543, (R)-3-(4-(7H-pyrrolo[2,3-d]pyrimidin-4-yl)-1H-pyrazol-1-yl)-3-(cyclopentyl-2,2,3,3,4,4,5,5-d8) propanenitrile]
- percentage of CGI-I responders (very much improved or much improved) (Week 24, 8 mg BID): 54.1%
- percentage of CGI-I responders (very much improved or much improved) (Week 24, 12 mg BID): 61.7%
- percentage of CGI-I responders (very much improved or much improved) (week 12, 8 mg BID): 38.0%
- percentage of CGI-I responders (very much improved or much improved) (week 12, 12 mg BID): 44.3%
- percentage of CGI-I responders (very much improved or much improved) (week 16, 8 mg BID): 45.0%
- percentage of CGI-I responders (very much improved or much improved) (week 16, 12 mg BID): 52.0%
- percentage of CGI-I responders (very much improved or much improved) (week 20, 8 mg BID): 50.0%
- percentage of CGI-I responders (very much improved or much improved) (week 20, 12 mg BID): 9.0%
